According to EP1803452A1, “ESTER DERIVATIVE AND PHARMACEUTICAL USE THEREOF” (Japan Tobacco, Inc., priority 2004, dated 2006):

Tests used:
[1] = Metabolic stability test in liver S9; assay type: in vitro ADME; details: pH 7.4, human liver S9 2 mg protein/mL, LC/MS; for remaining at 10 min: unchanged form after 10 minutes at 37°C, read-out: Remaining rate in human liver S9 (%/10min); for remaining at 1 h: unchanged form after 60 minutes at 37°C, read-out: Remaining rate in human liver S9 (%/60min)
Procedure: Human liver S9 (final concentration: 2 mg protein/mL), was suspended in 100 mM potassium phosphate buffer (pH 7.4, containing β-nicotinamide adenine dinucleotide phosphate: 1.3 mM, D-glucose-6- phosphate: 3.3 mM, magnesium chloride: 3.3 mM, glucose-6-phosphate dehydrogenase:0.4 U/mL). The suspension was mixed with a solution of a sample dissolved in DMSO. The solution was incubated at 37°C for 0, 10 and 60 minutes, and an acetonitrile containing formic acid (final concentration: 0.1%) was added thereto. The solutions were centrifuged, and the concentration of the sample (unchanged form) in the supernatant was determined by high performance liquid chromatography/mass spectrometry (LC/MS). Based on the data obtained, remaining rate (%) was calculated according to the following equation. Remaining rate(%) = amount of sample 0,10, or 60 minutes after [formula] incubation/amount of sample at zero time after incubation × 100 [formula]
(§1) With respect to the compounds obtained in Working Examples according to the present invention (Compounds 1-1 to 1-115, 2-1, 3-1, 3-2, and 4-1 to 4-4), the results of the remaining rate in human liver S9 and plasma are shown in Tables 28 to 32.

[2] = Stability test in buffer (pH 7.4); assay type: physicochemical; details: phosphate buffer/acetonitrile 7:3, 100 mM potassium phosphate buffer (pH 7.4) and acetonitrile 7:3 (v/v), LC/MS; for remaining at 10 min: 10 minutes at 37°C, read-out: Buf. remaining rate (%/10min); for remaining at 1 h: 60 minutes at 37°C, read-out: Buf. remaining rate (%/60min)
Procedure: In the tables, Buf. remaining rate was determined by stability test in buffer (pH 7.4) as described below. A sample dissolved in DMSO was mixed with a mixed solution of 100 mM potassium phosphate buffer and acetonitrile in the ratio of 7:3 (v/v). The mixture was incubated at 37°C for 0, 10, and 60 minutes, and acetonitrile containing formic acid (final concentration: 0.1%) was added thereto. The solution was centrifuged, and the concentration of the sample (unchanged form) in the supernatant was determined by high performance liquid chromatography/mass spectrometry (LC/MS). Based on the data obtained, Buf. remaining rate (%) was calculated according to the following equation. Buf.remaining rate(%) = amount of sample 0,10, or 60 minutes after incubation/amount of sample at zero time after incubation × 100 [formula]

[3] = Metabolic stability test in plasma; assay type: in vitro ADME, human; details: LC/MS; for remaining at 10 min: unchanged form after 10 minutes at 37°C in human plasma, read-out: Remaining rate in human plasma (%/10min); for remaining at 1 h: unchanged form after 60 minutes at 37°C in human plasma, read-out: Remaining rate in human plasma (%/60min)
Procedure: A sample dissolved in DMSO was added to plasma of human or animal species (mouse and hamster). The solutions were incubated at 37°C for 0, 10 and 60 minutes, and acetonitrile containing formic acid (final concentration: 0.1%) was added thereto. The solutions were centrifuged, and the concentration of the sample (unchanged form) in the supernatant was determined by high performance liquid chromatography/mass spectrometry (LC/MS). Based on the data obtained, the remaining rate (%) was calculated according to the following equation. Remaining rate(%) = amount of sample 0,10, or 60 minutes after incubation/amount of sample at zero time after incubation × 100 [formula]
as §1

## CC(C)OC(=O)COC(=O)c1ccc(OC(=O)CCCc2ccc(NC(=O)c3ccccc3-c3ccc(C(F)(F)F)cc3)c(C(=O)N(C)C)c2)cc1 [Compound 1-102, 4-[4-(3-dimethylcarbamoyl-4-{(4'-trifluoromethylbiphenyl-2-carbonyl)amino}phenyl)butyryloxy]benzoic acid isopropoxycarbonylmethyl ester]
[1]
  remaining at 10 min: 0%
  remaining at 1 h: 0%
[2]
  remaining at 10 min: 98%
  remaining at 1 h: 101%
[3]
  remaining at 10 min: 46%
  remaining at 1 h: 0%

## COC(=O)c1ccc(OC(=O)CCCc2ccc(NC(=O)c3ccccc3-c3ccc(C(F)(F)F)cc3)c(C(=O)N(C)C)c2)c(C(=O)OC)c1 [Compound 1-33, 4-(4-{3-dimethylcarbamoyl-4-[(4'-trifluoromethylbiphenyl-2-carbonyl)amino]phenyl}butyryloxy)isophthalic acid dimethyl ester]
[1]
  remaining at 10 min: 0%
  remaining at 1 h: 0%
[2]
  remaining at 10 min: 98%
  remaining at 1 h: 102%
[3]
  remaining at 10 min: 0%
  remaining at 1 h: 0%

## COC(=O)c1cc(Cl)c(OC(=O)CCCc2ccc(NC(=O)c3ccc(C)nc3-c3ccc(C(F)(F)F)cc3)c(C(=O)N(C)C)c2)c(C(C)C)c1 [Compound 1-74, 3-chloro-4-[4-(3-dimethylcarbamoyl-4-{[6-methyl-2-(4-trifluoromethylphenyl)pyridine-3-carbonyl]amino}phenyl)butyryloxy]-5-isopropylbenzoic acid methyl ester]
[1]
  remaining at 10 min: 24%
  remaining at 1 h: 9%
[2]
  remaining at 10 min: 102%
  remaining at 1 h: 101%
[3]
  remaining at 10 min: 77%
  remaining at 1 h: 19%

## COC(=O)c1cc(C)c(OC(=O)CCCc2ccc(NC(=O)c3ccc(C)nc3-c3ccc(C(F)(F)F)cc3)c(C(=O)N(C)C)c2)c(C(=O)OC)c1 [Compound 1-110, 4-[4-(3-dimethylcarbamoyl-4-{[6-methyl-2-(4-trifluoromethylphenyl)pyridine-3-carbonyl]amino}phenyl)butyryloxy]-5-methylisophthalic acid dimethyl ester]
[1]
  remaining at 10 min: 5%
  remaining at 1 h: 0%
[2]
  remaining at 10 min: 99%
  remaining at 1 h: 102%
[3]
  remaining at 10 min: 26%
  remaining at 1 h: 0%

## COC(=O)c1cc(OC)c(OC(=O)CCCc2ccc(NC(=O)c3ccc(C)nc3-c3ccc(C(F)(F)F)cc3)c(C(=O)N(C)C)c2)c(C(F)(F)F)c1 [Compound 1-47, 4-[4-(3-dimethylcarbamoyl-4-{[6-methyl-2-(4-trifluoromethylphenyl)pyridine-3-carbonyl]amino}phenyl)butyryloxy]-3-methoxy-5-trifluoromethylbenzoic acid methyl ester]
[1]
  remaining at 10 min: 14%
  remaining at 1 h: 0%
[2]
  remaining at 10 min: 96%
  remaining at 1 h: 97%
[3]
  remaining at 10 min: 0%
  remaining at 1 h: 0%

## CN(C)C(=O)c1cc(CCC(=O)Oc2ccccc2)ccc1NC(=O)c1ccccc1-c1ccc(C(F)(F)F)cc1 [Compound 1-1, 3-{3-dimethylcarbamoyl-4-[(4'-trifluoromethylbiphenyl-2-carbonyl)amino]phenyl}propionic acid phenyl ester]
[1]
  remaining at 10 min: 0%
  remaining at 1 h: 0%
[2]
  remaining at 10 min: 101%
  remaining at 1 h: 104%
[3]
  remaining at 10 min: 80%
  remaining at 1 h: 40%

## COC(=O)c1ccc(-c2nc(C)ccc2C(=O)Nc2ccc(CCCC(=O)Oc3c(Cl)cc(C(=O)OC)cc3OC)cc2C(=O)N(C)C)cc1 [Compound 4-4, 3-chloro-4-[4-(3-dimethylcarbamoyl-4-{[2-(4-methoxycarbonylphenyl)-6-methylpyridine-3-carbonyl]amino}phenyl)butyryloxy]-5-methoxybenzoic acid methyl ester]
[1]
  remaining at 10 min: 4%
  remaining at 1 h: 0%
[2]
  remaining at 10 min: 99%
  remaining at 1 h: 97%
[3]
  remaining at 10 min: 0%
  remaining at 1 h: 0%

## COC(=O)c1ccc(OC(=O)CCCc2ccc(NC(=O)c3ccccc3-c3ccc(C(F)(F)F)cc3)c(C(=O)N(C)C)c2)c(Cl)c1 [Compound 1-11, 3-chloro-4-(4-{3-dimethylcarbamoyl-4-[(4'-trifluoromethylbiphenyl-2-carbonyl)amino]phenyl}butyryloxy)benzoic acid methyl ester]
[1]
  remaining at 10 min: 0%
  remaining at 1 h: 0%
[2]
  remaining at 10 min: 99%
  remaining at 1 h: 99%
[3]
  remaining at 10 min: 0%
  remaining at 1 h: 0%

## COC(=O)c1ccc(OC(=O)CCCc2ccc(NC(=O)c3ccccc3-c3ccc(C(F)(F)F)cc3)c(C(=O)N(C)C)c2)c(C)c1 [Compound 1-66, 4-[4-(3-dimethylcarbamoyl-4-{(4'-trifluoromethylbiphenyl-2-carbonyl)amino}phenyl)butyryloxy]-3-methylbenzoic acid methyl ester]
[1]
  remaining at 10 min: 3%
  remaining at 1 h: 0%
[2]
  remaining at 10 min: 101%
  remaining at 1 h: 103%
[3]
  remaining at 10 min: 67%
  remaining at 1 h: 8%

## COC(=O)c1ccc(OC(=O)CCCc2ccc(NC(=O)c3ccccc3-c3ccc(C(F)(F)F)cc3)c(C(=O)N(C)C)c2)c(C(C)C)c1 [Compound 1-68, 4-[4-(3-dimethylcarbamoyl-4-{(4'-trifluoromethylbiphenyl-2-carbonyl)amino}phenyl)butyryloxy]-3-isopropylbenzoic acid methyl ester]
[1]
  remaining at 10 min: 11%
  remaining at 1 h: 3%
[2]
  remaining at 10 min: 101%
  remaining at 1 h: 103%
[3]
  remaining at 10 min: 77%
  remaining at 1 h: 18%

## CN(C)C(=O)c1cc(CCCC(=O)Oc2ccc(C(=O)OCc3cccs3)cc2)ccc1NC(=O)c1ccccc1-c1ccc(C(F)(F)F)cc1 [Compound 1-98, 4-[4-(3-dimethylcarbamoyl-4-{(4'-trifluoromethylbiphenyl-2-carbonyl)amino}phenyl)butyryloxy]benzoic acid thiophen-2-ylmethyl ester]
[1]
  remaining at 10 min: 6%
  remaining at 1 h: 0%
[2]
  remaining at 10 min: 101%
  remaining at 1 h: 99%
[3]
  remaining at 10 min: 5%
  remaining at 1 h: 0%

## COC(=O)c1cc(C)c(OC(=O)CCCc2ccc(NC(=O)c3ccc(C)nc3-c3ccc(C(F)(F)F)cc3)c(C(=O)N(C)C)c2)c(F)c1 [Compound 1-41, 4-[4-(3-dimethylcarbamoyl-4-{[6-methyl-2-(4-trifluoromethylphenyl)pyridine-3-carbonyl]amino}phenyl)butyryloxy]-3-fluoro-5-methylbenzoic acid methyl ester]
[1]
  remaining at 10 min: 4%
  remaining at 1 h: 0%
[2]
  remaining at 10 min: 103%
  remaining at 1 h: 106%
[3]
  remaining at 10 min: 37%
  remaining at 1 h: 0%

## CCCOC(=O)c1cc(Cl)c(OC(=O)CCCc2ccc(NC(=O)c3ccc(C)nc3-c3ccc(C(F)(F)F)cc3)c(C(=O)N(C)C)c2)c(OC)c1 [Compound 1-75, 3-chloro-4-[4-(3-dimethylcarbamoyl-4-{[6-methyl-2-(4-trifluoromethylphenyl)pyridine-3-carbonyl]amino}phenyl)butyryloxy]-5-methoxybenzoic acid propyl ester]
[1]
  remaining at 10 min: 23%
  remaining at 1 h: 3%
[2]
  remaining at 10 min: 113%
  remaining at 1 h: 124%
[3]
  remaining at 10 min: 0%
  remaining at 1 h: 0%

## CN(C)C(=O)c1cc(CCCC(=O)Oc2ccc(C(=O)OCCCOCc3ccccc3)cc2)ccc1NC(=O)c1ccccc1-c1ccc(C(F)(F)F)cc1 [Compound 1-90, 4-[4-(3-dimethylcarbamoyl-4-{(4'-trifluoromethylbiphenyl-2-carbonyl)amino}phenyl)butyryloxy]benzoic acid 3-benzyloxypropyl ester]
[1]
  remaining at 10 min: 7%
  remaining at 1 h: 0%
[2]
  remaining at 10 min: 102%
  remaining at 1 h: 103%
[3]
  remaining at 10 min: 50%
  remaining at 1 h: 0%
